These results are taken from patent US20260248789A1, “CONTROLLED RELEASE PDE10A FORMULATIONS” (Merck Sharp & Dohme LLC, priority 2023, published 2026).

The nature of series [1]: Study 2: multiple-dose titration study, PK of CR formulation. The series is classed as in vivo. The conditions noted are these: human, plasma, oral, highest dose level in Study 2 (48 mg, CR formulation, schizophrenia). The procedure: (§1) Study 2 was designed similarly to Study 1; participants were administered CR Release formulations of Compound A/placebo as monotherapy in participants with schizophrenia (n=16) and healthy participants (n=16), or as adjunctive therapy (n=17) (schizophrenia participants only) and titrated from 4 mg to 24 mg (see Table 3 for illustration of PK at the 24 mg dose level as monotherapy in healthy adults). In Study 2 an additional panel of participants with schizophrenia was administered CR formulations of Compound A/placebo as monotherapy and titrated from 8 mg to 48 mg (n=26)(see Table 4 for illustration of PK at the 48 mg dose level).

A short description of series [2]: Study 2: tolerability of CR formulation. The series is classed as in vivo, human. The note with it: Study 2, CR formulation titrated from 4 mg to 24 mg and from 8 mg to 48 mg. The protocol:
as §1

A short description of series [3]: Study 3: tolerability / adverse events of CR formulation. The series is classed as in vivo, human. The protocol: In Study 3, one panel of participants [(n=8)—monotherapy in adult participants with schizophrenia] were titrated from 16 mg to 24 mg or placebo, while in another panel participants (n=18) received 24 mg/placebo without titration (Table 5) to determine if titration was required for tolerability.
There were 2 events of transient dystonia following the first dose of 16 mg, but both events responded to treatment and participants continued dosing without recurrence. […] Other adverse events (i.e., depression, anxiety and stress) across all three studies were mostly mild or moderate in intensity and there was no clear dose-related increase in specific events (Table 6).

Series [4] is described as follows: Study 7: tolerability in healthy subjects 8-72 mg. The conditions noted are these: Study 7, healthy subjects (n=12) dosed 8 mg to 72 mg; up to and including doses of 48 mg. The series is classed as in vivo, human. An excerpt: Plasma exposures in this study were generally similar those observed in the other multiple dose studies reported here (data not shown).

Setting [5] is: 24 mg (Day 1-7), Panel B, participants with schizophrenia, 14 in population.

Broadly, the Cmax is the peak of the concentration-time curve.

The molecule `Cc1ccc([C@H]2C[C@@H]2COc2cc(NCc3nnc(C)s3)nc(C)n2)nc1` [Compound A, 2-methyl-N-((5-methyl-1,3,4-thiadiazol-2-yl)methyl)-6-(((1S,2S)-2-(5-methylpyridin-2-yl)cyclopropyl)methoxy)pyrimidin-4-amine] gave a Cmax in series [1] of approximately 1800 nM. Also, the concentration at 24 h in series [1] (read-out: C24) is approximately 1200 nM. Further, in series [2], the dystonia result is recorded as “no Compound A-related dystonia was observed”. Moreover, in series [3] (setting [5]), the “Alanine aminotransferase increased, (%)” value is listed as “(7.1) %”; the “Decreased appetite, (%)” value is “(7.1) %”; the “Hypertonia, (%)” value is listed as “(7.1) %”; the “Investigations (non-serious related AE), (%)” value was “(7.1) %”. Also, in series [3] (setting [5]), the “Metabolism and nutrition disorders, (%)” value is reported as “(7.1) %”; the “Musculoskeletal and connective tissue disorders, (%)” value is recorded as “(7.1) %”; the “Musculoskeletal stiffness, (%)” value is “(7.1) %”; the “Nervous system disorders, (%)” value is recorded as “(21.4) %”. Also, in series [3] (setting [5]), the “Participants with no Non-Serious Related Adverse Event, (%)” value is recorded as “(64.3) %”; the “Participants with one or more Non-Serious Related Adverse Event, (%)” value is given as “(35.7) %”; the “Somnolence, (%)” value is given as “(14.3) %”. For the same molecule, the tolerability entry in series [3] (Study 3, dosing initiated at 16 mg or 24 mg with no titration) was “generally well tolerated”. In addition, the dystonia entry in series [3] (Study 3, dosing initiated at 24 mg without titration) is “No events of dystonia were reported”. In series [3] (Study 3, following the first dose of 16 mg), the “events of transient dystonia” value amounted to 2. Further, the dystonia entry in series [4] is “no dystonia was reported”.
